Test system: iCTCs from pancreatic cancer patients
Assay: iCTC drug response (CDR) testing ex vivo, Project 1 Study-Pancreatic Cancer
Format: cell-based, human
Settings: for number of live iCTCs remaining after treatment: 72 hours
Procedure: Materials for Project 1 Study-Pancreatic Cancer • Blood collection tubes: BD Vacutainer® 10 mL sodium heparin tube (BD catalog #367874)). • Vita-Assay™ AN6W plate. • Blood: pancreatic cancer, up to 40-mL blood collected from patients and provided by Conversant Bio. • Stock solution and dilutions • Monolaurin 4.78 mM with 0.75% PS-80 (Stock Solution C), 13.1 mg monolaurin in 0.25 mL PS-80 and 0.75 mL water and 0.1 mL of this solution was diluted with 0.9 mL of RPMI. Stocks are stable for 2 weeks at 4 degrees C. Monolaurin used is an equal mixture of 1-, 2-, and 3-isomers of monolaurin. • Monolaurin dilution: add 209.2 uL, 627.6 uL, and 1.2552 mL of monolaurin in 0.75% PS-80 (Stock solution C), and dilute to 10 mL of media to achieve final concentrations of 100 uM, 200 uM, 300 uM as indicated.
With respect to FIG. 1, a depiction of a generalized experimental scheme for testing efficacy of a composition in accordance with an exemplary embodiment of the present invention against iCTC from the blood of pancreatic cancer patients is shown. Invasive circulating tumor cells (iCTCs) were obtained from venous blood of the individual with advanced pancreatic cancer, cultured and exposed to a specific drug or battery of drugs at 1×, 2×, and 3× concentrations in vitro for 3 days. Drug responsiveness was measured by automatic flow cytometry using the reduction of live iCTCs in the treated samples from the number of live iCTCs in the untreated controls. The greater the reduction of iCTCs of a given drug at a given dose indicates greater responsiveness to that dose of the drug. Four AN6W plates were used for each sample. Control and drug at each dose in triplicate were incubated for 72 hours. The iCTCs were measured by flow cytometry and viewed by microscopy as described. The complete culture medium contains 10% fetal bovine serum.
The complete experimental procedure for Project 1 Study-Pancreatic Cancer, with reference to FIG. 1, is as follows:
1. Blood collection: up to 40-mL of blood was collected in several sodium heparin tubes from each patient.
2. Plasma collection: The patient sample tubes were pooled into a clean 50-mL conical tube and spun at 1,500 rpm for 8 mins at room temperature to separate plasma from blood cells. 3-4 mL of plasma were then collected into a clean 4.5-mL cell-frozen vial (up to 4 vials per patient), a labeled attached and the plasma stored at −80° C. freezer for use. 3. Calculated 50-mL tubes required for lysis of red blood cells: original blood volume. i.e., 36-mL,/2-mL=18. 4. Aliquotted 1/18 the remaining cell fraction into 18 new 50-mL tubes. 5. Red cell lysis: Added 48-mL of 1× red cell lysis buffer into each 50-mL tube to lyse red cells. Tubes placed on a roller mixer at 20-25° C. for 5 min. Cells spun down using low speed centrifugation (1,000 rpm). 6. iCTCs were captured using AN6W plate with or without drug treatment. 7. Drug treatment: Add 1-mL of CTC Capture Medium (standard culture medium containing 10% serum) with or without drugs (3× strength) to each 2-mL of the cell suspension in one well of the AN6W plate. 8. Cell culture: Culture cells in a 5% CO2 incubator at 37° C. for overnight, 72 hours, and 7 days. 9. CAM-enzyme elution of CAM-captured cells: Wells will be washed twice using 2-mL of 1×PBS. Add 0.8-mL of the activated CAM enzyme working solution into the well, and place at 37° C. for 15 min. Transfer cell suspension into a 15-mL conical centrifuge tube. Wash well by pipetting 2-mL of 1×PBS into the well and collect/transfer wash solution into the pool cell suspension. CAM-captured tumor cells will be collected using low speed centrifugation (1,000 rpm) of the conical tube. 10. Preparation of the cells for flow cytometry: Fix the cells by using 1×BD cell fixing buffer and keep at room temperature for 5 min. Add 3-mL of 1×PBS (containing 0.2% BSA buffer), spin down cells and remove the supernatant. 11. […]

SMILES: CCCCCCCCCCCC(=O)OCC(O)CO (stereo not shown) [Monolaurin, glycerol monolaurate]
- kill rates of iCTCs (summary) (iCTCs from pancreatic cancer patients): high kill rates
- number of live iCTCs remaining after treatment (patient RP01 (Folfirinox), iCTC control 550, 100 uM monolaurin): 50
- number of live iCTCs remaining after treatment (patient RP01 (Folfirinox), iCTC control 550, 200 uM monolaurin): 0
- number of live iCTCs remaining after treatment (patient RP01 (Folfirinox), iCTC control 550, 300 uM monolaurin): 0
- number of live iCTCs remaining after treatment (patient RP03 (Folfirinox), iCTC control 23, 100 uM monolaurin): 10
- number of live iCTCs remaining after treatment (patient RP03 (Folfirinox), iCTC control 23, 200 uM monolaurin): 0
- number of live iCTCs remaining after treatment (patient RP03 (Folfirinox), iCTC control 23, 300 uM monolaurin): 0
- number of live iCTCs remaining after treatment (patient RP04 (Folfirinox), iCTC control 30, 100 uM monolaurin): 0
- number of live iCTCs remaining after treatment (patient RP04 (Folfirinox), iCTC control 30, 200 uM monolaurin): 0
- number of live iCTCs remaining after treatment (patient RP04 (Folfirinox), iCTC control 30, 300 uM monolaurin): 0
- number of live iCTCs remaining after treatment (patient RP10 (Folfirinox), iCTC control 100, 100 uM monolaurin): 10
- number of live iCTCs remaining after treatment (patient RP10 (Folfirinox), iCTC control 100, 200 uM monolaurin): 0
- number of live iCTCs remaining after treatment (patient RP10 (Folfirinox), iCTC control 100, 300 uM monolaurin): 0
- number of live iCTCs remaining after treatment (patient RP11 (Folfirinox), iCTC control 40, 100 uM monolaurin): 10
- number of live iCTCs remaining after treatment (patient RP11 (Folfirinox), iCTC control 40, 200 uM monolaurin): 10
- number of live iCTCs remaining after treatment (patient RP11 (Folfirinox), iCTC control 40, 300 uM monolaurin): 10
- number of live iCTCs remaining after treatment (patient RP12 (Folfirinox), iCTC control 30, 100 uM monolaurin): 20
- number of live iCTCs remaining after treatment (patient RP12 (Folfirinox), iCTC control 30, 200 uM monolaurin): 0
- number of live iCTCs remaining after treatment (patient RP12 (Folfirinox), iCTC control 30, 300 uM monolaurin): 0
- number of live iCTCs remaining after treatment (patient RP16 (Folfirinox), iCTC control 30, 100 uM monolaurin): 0
- number of live iCTCs remaining after treatment (patient RP16 (Folfirinox), iCTC control 30, 200 uM monolaurin): 0
- number of live iCTCs remaining after treatment (patient RP16 (Folfirinox), iCTC control 30, 300 uM monolaurin): 0
- number of live iCTCs remaining after treatment (patient RP17 (Gemzar), iCTC control 50, 100 uM monolaurin): 0
- number of live iCTCs remaining after treatment (patient RP17 (Gemzar), iCTC control 50, 200 uM monolaurin): 0
- number of live iCTCs remaining after treatment (patient RP17 (Gemzar), iCTC control 50, 300 uM monolaurin): 0
- number of live iCTCs remaining after treatment (patient RP18 (Gemzar/Abraxane), iCTC control 175, 100 uM monolaurin): 0
- number of live iCTCs remaining after treatment (patient RP18 (Gemzar/Abraxane), iCTC control 175, 200 uM monolaurin): 0
- number of live iCTCs remaining after treatment (patient RP18 (Gemzar/Abraxane), iCTC control 175, 300 uM monolaurin): 0
- number of live iCTCs remaining after treatment (patient RP22 (Keytruda), iCTC control 45, 100 uM monolaurin): 0
- number of live iCTCs remaining after treatment (patient RP22 (Keytruda), iCTC control 45, 200 uM monolaurin): 0
- number of live iCTCs remaining after treatment (patient RP22 (Keytruda), iCTC control 45, 300 uM monolaurin): 0
- number of live iCTCs remaining after treatment (patient RP′14 (Folfirinox), iCTC control 40, 100 uM monolaurin): 20
- number of live iCTCs remaining after treatment (patient RP′14 (Folfirinox), iCTC control 40, 200 uM monolaurin): 15
- number of live iCTCs remaining after treatment (patient RP′14 (Folfirinox), iCTC control 40, 300 uM monolaurin): 10

Reference: patent publication US11497761B2, “Compositions for the treatment of metastatic cancer” (priority 2019, dated 2022)
